Laboratory results as given in patent US20130289071A1, “TETRAZOLYL-TETRAHYDROPYRIDINE COMPOUNDS FOR INFLAMMATION AND IMMUNE-RELATED USES” (Synta Pharmaceuticals Corp., priority 2010, published 2013).

What follows are compounds tested on IL-2 production (assay: Inhibition of IL-2 production (Jurkat/PHA/1% FBS, ELISA)). Conditions: Homo sapiens, Jurkat, 20 h, Jurkat cells, PHA 2.5 μg/mL.
Format: cell-based
Description: JurkaT-cells were placed in a 96 well plate (0.5 million cells per well in 1% FBS medium), and then a test compound of this invention was added at different concentrations. After 10 minutes, the cells were activated with PHA (final concentration 2.5 μg/mL) and incubated for 20 hours at 37° C. under 5% CO2. The final volume was 200 μL. Following incubation, the cells were centrifuged, and the supernatants collected and stored at −70° C. prior to assaying for IL-2 production. A commercial ELISA kit (IL-2 Eli-pair, Diaclone Research, Besancon, France) was used to detect production of IL-2, from which dose response curves were obtained. The IC50 value was calculated as the concentration at which 50% of maximum IL-2 production after stimulation was inhibited versus a non-stimulation control.

Going from `CC1=C(c2ccc(NC(=O)c3cncc(F)c3C)cc2)CN(c2nnn(C)n2)CC1` [Compound 6] to `CCc1c(F)cncc1C(=O)Nc1ccc(C2=C(C)CCN(c3nnn(CC)n3)C2)cc1` [Compound 59], the IC50 rises from 0.013 µM to 0.105 µM (8.1-fold).

First: CC1=C(c2cnc(NC(=O)c3c(F)cccc3Cl)cn2)CN(c2nnn(C)n2)CC1 [Compound 5]
Second: CC1=C(c2cnc(NC(=O)c3c(F)cccc3F)cn2)CN(c2nnn(C)n2)CC1 [Compound 32]
The IC50 of the first is 3.5-fold lower: 0.013 µM for the first, 0.046 µM for the second.

Compared with `CCn1nnc(N2CCC(C)=C(c3ccc(NC(=O)c4cc(C)ncc4C)cc3)C2)n1` [Compound 70], `CCn1nnc(N2CCC(C)=C(c3ccc(NC(=O)c4cccc(F)c4F)cc3)C2)n1` [Compound 34] is 6.1-fold lower in IC50: 0.289 µM for the first, 0.047 µM for the second. The second is the more potent here.

`[2H]C([2H])([2H])n1nnc(N2CCC(C)=C(c3ccc(NC(=O)c4cccc(F)c4F)cc3)C2)n1` [Compound 1] and `CC1=C(c2ccc(NC(=O)c3cccc(F)c3F)cc2)CN(c2nnn(CF)n2)CC1` [Compound 2] are within 1.5-fold of each other in IC50: 0.01 µM for the first, 0.011 µM for the second.

First: COc1cccc(F)c1C(=O)Nc1ccc(C2=C(C)CCN(c3nnn(C)n3)C2)cc1 [Compound 68]
Second: COc1ccc(F)cc1C(=O)Nc1ccc(C2=C(C)CCN(c3nnn(C)n3)C2)cc1 [Compound 76]
The IC50 of the first is 6.1-fold lower: 0.163 µM for the first, 1 µM for the second.

First: CC1=C(c2ccc(C(=O)Nc3c(F)cccc3F)cn2)CN(c2nnn(C)n2)CC1 [Compound 65]
Second: CC1=C(c2cnc(C(=O)Nc3c(F)cccc3F)cn2)CN(c2nnn(C)n2)CC1 [Compound 50]
The IC50 of the first is 1.7-fold higher: 0.127 µM for the first, 0.074 µM for the second. The second is the more potent here.

`CC(C)C1=C(c2cnc(NC(=O)c3c(F)cccc3F)cn2)CN(c2nnn(C)n2)CC1` [Compound 35] and `CCC1=C(c2cnc(NC(=O)c3ccc(F)cc3F)cn2)CN(c2nnn(C)n2)CC1` [Compound 49] are within 1.5-fold of each other in IC50: 0.049 µM for the first, 0.067 µM for the second.

First: CC1=C(c2cnc(NC(=O)c3cncc(F)c3C)cn2)CN(c2nnn(C)n2)CC1 [Compound 66]
Second: CC1=C(c2cnc(NC(=O)c3ccncc3Cl)cn2)CN(c2nnn(C)n2)CC1 [Compound 73]
The IC50 of the first is 2.9-fold lower: 0.147 µM for the first, 0.423 µM for the second.

`Cn1nnc(N2CCC(Cl)=C(c3ccc(NC(=O)c4ccncc4Cl)cc3)C2)n1` [Compound 43] and `Cn1nnc(N2CCC(Cl)=C(c3ccc(NC(=O)c4ccncc4F)cc3)C2)n1` [Compound 28] are within 1.5-fold of each other in IC50: 0.056 µM for the first, 0.039 µM for the second.

`CCC1=C(c2ccc(NC(=O)c3cccc(F)c3F)cc2)CN(c2nnn(C)n2)CC1` [Compound 7] and `CCC1=C(c2ccc(NC(=O)c3cccc(F)c3F)cc2)CN(c2nnn(CF)n2)CC1` [Compound 3] are within 1.5-fold of each other in IC50: 0.014 µM for the first, 0.012 µM for the second.

Going from `CC1=C(c2ccc(NC(=O)c3cccc(F)c3F)cc2)CN(c2nnn(C(F)F)n2)CC1` [Compound 21] to `CC1=C(c2ccc(NC(=O)c3cccc(F)c3F)cc2)CN(c2nnn(CC(C)C)n2)CC1` [Compound 71], the IC50 rises from 0.026 µM to 0.312 µM (12-fold).

`CC1=C(c2ccc(NC(=O)c3c(Cl)cncc3Cl)cc2)CN(c2nnn(C)n2)CC1` [Compound 57] and `CC1=C(c2ccc(NC(=O)c3cccc(Cl)c3Cl)cc2)CN(c2nnn(C)n2)CC1` [Compound 62] are within 1.5-fold of each other in IC50: 0.1 µM for the first, 0.124 µM for the second.

First: CC(C)C1=C(c2ccc(NC(=O)c3ccc(F)cc3F)nc2)CN(c2nnn(C)n2)CC1 [Compound 64]
Second: CC1=C(c2ccc(NC(=O)c3c(F)cccc3Cl)nc2)CN(c2nnn(C)n2)CC1 [Compound 13]
The IC50 of the first is 7.4-fold higher: 0.126 µM for the first, 0.017 µM for the second.

`CC1=C(c2ccc(NC(=O)c3c(F)cccc3F)cc2)CN(c2nnn(C(C)C)n2)CC1` [Compound 44] and `CCCn1nnc(N2CCC(C)=C(c3ccc(NC(=O)c4cccc(F)c4F)cc3)C2)n1` [Compound 52] are within 1.5-fold of each other in IC50: 0.056 µM for the first, 0.077 µM for the second.

`CC1=C(c2ccc(NC(=O)c3cccnc3C)cc2)CN(c2nnn(C)n2)CC1` [Compound 60] and `CC1=C(c2ccc(NC(=O)c3ncncc3C)cc2)CN(c2nnn(C)n2)CC1` [Compound 63] are within 1.5-fold of each other in IC50: 0.114 µM for the first, 0.124 µM for the second.

With `CC1=C(c2ccc(NC(=O)c3cc(F)ccc3Cl)cc2)CN(c2nnn(C)n2)CC1` [Compound 53] the IC50 was 0.085 µM.

Same assay, conditions: Jurkat cells, PHA 2.5 μg/mL, 20 hours

For `CC1=C(c2ccc(NC(=O)c3cccc(F)c3F)cc2)CN(c2nnn(C)n2)CC1` [Compound 19], the IC50 was 0.022 µM.
